Measurements published in patent US20260070886A1, “QUINOLINE PIPERAZINE DERIVATIVES, PHARMACEUTICAL COMPOSITION AND USES THEREOF” (priority 2022, published 2026).

Key:
Type in all cases: cell-based
NCI-H-522 cells = assay: Cell cytotoxicity assay, NCI-H-522 cells; conditions: Homo sapiens, NCI-H522, 72 hours, percent cytotoxicity against DMSO control; for cytotoxicity at 1 µM: 1 μM compound, read-out: Cell toxicity NCI-H-522 cells 1 μM; for cytotoxicity at 10 µM: 10 μM compound, read-out: Cell toxicity NCI-H-522 cells 10 μM
Description: (§1) The following human derived non-small cell lung cancer cell lines were used to test the efficiency of the compounds to cause cell death and assess the anti-cancer properties of said compounds: 1. A549 cells: adenocarcinomic human alveolar basal epithelial cells; these cells are used as models for the study of lung cancer and the development of drug therapies against it • 2. NCI-H-460 cells are also human lung cancer cells, and • 3. NCI-H-522 cells are also human lung cancer cells.
(§2) 500 cells/well/30 μL were seeded in a 384 well cell culture plate. Incubated over night at 37° C., 5% CO2 in cell culture incubator. 10 μL of 4× compound was added to the plates, and incubated for 72 hours at 37° C., 5% CO2 in cell culture incubator. Assay DMSO control were included for 0% cytotoxicity control. Assay was terminated by addition of 10 μL of the reagent CTG 2.0 detection reagent #G9242. Plates were incubated for 20 minute incubation at room temperature with shaking Plate were read in Envision. Ultrasensitive luminescence and data was analyzed and percent cytotoxicity of compounds was determined against DMSO control.
(§3) All the compounds, A1-A116, were tested for cell toxicity using said non-small cell lung cancer cell lines using the above described method.

NCI-H-460 cells = assay: Cell cytotoxicity assay, NCI-H-460 cells; conditions: Homo sapiens, NCI-H460, 72 hours, percent cytotoxicity against DMSO control; for cytotoxicity at 1 µM: 1 μM compound, read-out: Cell toxicity NCI-H-460 cells 1 μM; for cytotoxicity at 10 µM: 10 μM compound, read-out: Cell toxicity NCI-H-460 cells 10 μM
Description: as §1, §2, §3

[1] = system: Non-small cell lung cancer cell lines; assay: Cell toxicity assay, overall statement; conditions: summary in words of Table 6
Description: as §1, §2, §3
These selected derivatives of Formula A were further tested to confirm their efficiency as anti-cancer compounds.

A549 cells = assay: Cell cytotoxicity assay, A549 cells; conditions: Homo sapiens, 72 hours, percent cytotoxicity against DMSO control; for cytotoxicity at 1 µM: 1 μM compound, read-out: Cell toxicity A549 cells 1 μM; for cytotoxicity at 10 µM: 10 μM compound, read-out: Cell toxicity A549 cells 10 μM
Description: as §1, §2, §3

Row | SMILES | cytotoxicity at 1 µM (NCI-H-522 cells) [%] | cytotoxicity at 10 µM (NCI-H-522 cells) [%] | cytotoxicity at 1 µM (NCI-H-460 cells) [%] | cytotoxicity at 10 µM (NCI-H-460 cells) [%] | activity against Non-small cell lung cancer (cell toxicity) [1] | cytotoxicity at 1 µM (A549 cells) [%] | cytotoxicity at 10 µM (A549 cells) [%]
1 | FC(F)(F)c1cc(N2CCN(c3ccnc4cc(Cl)ccc34)CC2)nc(Nc2ccccc2)n1 [Compound A40, 4-(4-(7-chloroquinolin-4-yl)piperazin-1-yl)-N-phenyl-6-(trifluoromethyl)pyrimidin-2-amine] | 6 | 11 | -12 | -7 | active | 15 | 8
2 | COc1cc(Nc2nc(N3CCN(c4ncnc5ccccc45)CC3)cc(C(F)(F)F)n2)cc(OC)c1 [Compound A47, N-(3,5-dimethoxyphenyl)-4-(4-(quinazolin-4-yl)piperazin-1-yl)-6-(trifluoromethyl)pyrimidin-2-amine] | 45 | 43 | 4 | 12 | active | 38 | 44
3 | Cc1cc(N2CCN(c3ccnc4cc(Cl)ccc34)CC2)nc(N2CCCCCC2)n1 [Compound A13, 4-(4-(2-(azepan-1-yl)-6-methylpyrimidin-4-yl)piperazin-1-yl)-7-chloroquinoline] | 3 | 48 | -11 | 47 | active | 14 | 88
4 | FC(F)(F)c1cc(N2CCN(c3ccnc4cc(Cl)ccc34)CC2)nc(N2CCNCC2)n1 [Compound A22, 7-chloro-4-(4-(2-(piperazin-1-yl)-6-(trifluoromethyl)pyrimidin-4-yl)piperazin-1-yl)quinoline] | 1 | 11 | -14 | -2 | active | 11 | 17
5 | Cc1cc(N2CCN(c3ccnc4cc(Cl)ccc34)CC2)nc(N2CCCC2)n1 [Compound A11, 7-chloro-4-(4-(6-methyl-2-(pyrrolidin-1-yl)pyrimidin-4-yl)piperazin-1-yl)quinoline] | 2 | 9 | -12 | -4 | active | 16 | 10
6 | COc1cc(F)cc(Nc2nc(C)cc(N3CCN(c4ccnc5cc(Cl)ccc45)CC3)n2)c1 [Compound A5, 4-(4-(7-chloroquinolin-4-yl)piperazin-1-yl)-N-(3-fluoro-5-methoxyphenyl)-6-methylpyrimidin-2-amine] | 6 | 22 | -8 | 7 | active | 24 | 5
7 | COc1cccc(Nc2nc(N3CCN(c4ccnc5cc(Cl)ccc45)CC3)cc(C(F)(F)F)n2)c1 [Compound A8, 4-(4-(7-chloroquinolin-4-yl)piperazin-1-yl)-N-(3-methoxyphenyl)-6-(trifluoromethyl)pyrimidin-2-amine] | 1 | 7 | -9 | -3 | active | 14 | 5
8 | Fc1cccc(F)c1Nc1nc(N2CCN(c3ccnc4cc(Cl)ccc34)CC2)cc(C(F)(F)F)n1 [Compound A33, 4-(4-(7-chloroquinolin-4-yl)piperazin-1-yl)-N-(2,6-difluorophenyl)-6-(trifluoromethyl)pyrimidin-2-amine] | 2 | 17 | -9 | 3 | active | 8 | -8
9 | COc1cc(Nc2nc(C)cc(N3CCN(c4ccnc5cc(C(F)(F)F)ccc45)CC3)n2)cc(OC)c1 [Compound A44, N-(3,5-dimethoxyphenyl)-4-methyl-6-(4-(7-(trifluoromethyl)quinolin-4-yl)piperazin-1-yl)pyrimidin-2-amine] | 8 | 26 | 0 | 7 | active | 26 | 18
10 | FC(F)(F)c1cc(N2CCN(c3ccnc4cc(Cl)ccc34)CC2)nc(N2CCCCC2)n1 [Compound A20, 7-chloro-4-(4-(2-(piperidin-1-yl)-6-(trifluoromethyl)pyrimidin-4-yl)piperazin-1-yl)quinoline] | 8 | 43 | -10 | 60 | active | 37 | 89
11 | COc1cc(Nc2nccc(N3CCN(c4ccnc5cc(Cl)ccc45)CC3)n2)cc(OC)c1 [Compound A41, 4-(4-(7-chloroquinolin-4-yl)piperazin-1-yl)-N-(3,5-dimethoxyphenyl)pyrimidin-2-amine] | 7 | 56 | 2 | 28 | active | 23 | 42
12 | FC(F)(F)c1cc(N2CCN(c3ccnc4cc(Cl)ccc34)CC2)nc(Nc2ccncc2)n1 [Compound A36, 4-(4-(7-chloroquinolin-4-yl)piperazin-1-yl)-N-(pyridin-4-yl)-6-(trifluoromethyl)pyrimidin-2-amine] | 2 | 72 | -11 | 98 | active | 0 | 99
13 | COc1cc(Nc2nc(N3CCN(c4ccnc5cc(C(F)(F)F)ccc45)CC3)cc(C(F)(F)F)n2)cc(OC)c1 [Compound A45, N-(3,5-dimethoxyphenyl)-4-(trifluoromethyl)-6-(4-(7-(trifluoromethyl)quinolin-4-yl)piperazin-1-yl)pyrimidin-2-amine] | 7 | 55 | 0 | 12 | active | 8 | 83
14 | Cc1cc(N2CCN(c3ccnc4cc(Cl)ccc34)CC2)nc(Nc2ccccc2)n1 [Compound A39, 4-(4-(7-chloroquinolin-4-yl)piperazin-1-yl)-6-methyl-N-phenylpyrimidin-2-amine] | 1 | 15 | -11 | -4 | active | 4 | 18
15 | FC(F)(F)c1cc(N2CCN(c3ccnc4cc(Cl)ccc34)CC2)nc(N2CCCCCC2)n1 [Compound A21, 4-(4-(2-(azepan-1-yl)-6-(trifluoromethyl)pyrimidin-4-yl)piperazin-1-yl)-7-chloroquinoline] | 1 | 9 | -15 | -8 | active | 13 | 23
